Drawing on patent US20260007756A1, “COMPOUND AND USE THEREOF” (COHERENT BIOPHARMA (SUZHOU) LIMITED, priority 2022, published 2026), this text covers Mean tumor volume, TGI and IC50 for one molecule.

As a reminder, the TGI is how far tumour growth fell short of that in controls. Low readings indicate a weaker effect on the tumour, high ones a stronger effect on the tumour. Broadly, the IC50 is the midpoint of a concentration-inhibition curve.

The subject of assay [1] is human prostate cancer 22RV1 cell subcutaneous xenograft tumor. Kind of assay: Pharmacodynamic assessment, 22RV1 xenograft model. Format: in vivo. The conditions noted are these: 4 mg/kg iv biw×3, day 31 after grouping. From the text: Objective: Pre-clinical pharmacodynamic study of compounds for treating BALB/c nude mouse model with 22RV1 cell subcutaneous xenograft tumor (overexpressing PSMA).
Procedures: 22RV1 tumor mass was grafted subcutaneously at the right back of the mice, and the mice were randomized after the mean tumor volume was 150 mm^3. After administration, the animals were monitored daily for health conditions and death, and the routine examinations included observation of the effect on tumor growth and the effect of the treatment on the daily performance of the animals, such as behavioral activities, food and water intake, weight changes (measured once every other day), appearance, or other abnormal conditions. Whether the tumor growth was inhibited or delayed or the tumor was cured was also observed. The tumor volume was measured periodically. The tumor volume was calculated using the following formula: V=1/2×(a×b^2), where a and b denote the long diameter and short diameter of the tumor, respectively.

In another assay the test system is NCI-H460. Kind of assay: Expansion inhibition of tumor cells (Example 7, CCK-8). The class given is cell-based. Particulars: Homo sapiens, NCI-H460 (no detectable FOLR1 or PSMA expression), 72 h. The procedure:
(§1) Samples were serially diluted with medium (serially 5-fold diluted from 10 μM) to 9 concentrations. […] Negative and blank controls were set.
(§2) A CCK-8 developing solution was added at 10 μL/well (10% of the liquid volume in the wells). The plates were incubated at 37° C. for a proper time (the OD value was controlled within the range of 1.0-2.5 as possible). The plate covers were removed, and the 96-well plates were loaded on a microplate reader (Molecular Devices SpectraMax iD5) to read the measurement at 450 nm.

A further assay deals with HepG2. Described as above. Format: cell-based. Particulars: Homo sapiens, HepG2 (no detectable FOLR1 or PSMA expression), 72 h. The procedure: as §1, §2
In the next assay the test system is A549. Described as above. The class given is cell-based. Particulars: Homo sapiens, A549 (no detectable FOLR1 or PSMA expression), 72 h. The procedure: as §1, §2
The next assay concerns PC-3. Described as above. The class given is cell-based. The conditions noted are these: Homo sapiens, PC-3 (no detectable FOLR1 or PSMA expression), 72 h. The procedure: as §1, §2

Each structure is given as a SMILES string.

Molecule `CC[C@@H]1C(=O)N(C)c2cnc(Nc3ccc(-c4cn([C@H]5CC[C@@H](NCCOCCC#Cc6cccc7c6CN(C6CCC(=O)NC6=O)C7=O)CC5)nn4)cc3OC)nc2N1C1CCCC1` (stereo partly drawn) [CR20274] registered a Mean tumor volume in assay [1] of 1274.47 mm^3. The molecule further came in with a TGI in assay [1] of 31.55%. Further, the IC50 with NCI-H460 turned out to be 0.314 µM; in the assay on HepG2, 0.107 µM; with A549, 0.124 µM; with PC-3, 0.103 µM.
